Results as given in PubChem BioAssay (NCI).
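Compound exposure: 48 hours, 5 concentrations, 96-well plates. GI50 marks 50% less growth. The concentration for full growth arrest is given as TGI.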

Tests used:
Experiment in all cases: NCI anticancer screen, dose series, 48 h
MOLT-4 leukemia = tested on: MOLT-4 leukemia
NCI-H226 lung = tested on: NCI-H226 lung
NCI-H23 lung = tested on: NCI-H23 lung
NCI-H460 lung = tested on: NCI-H460 lung
OVCAR-8 ovarian = tested on: OVCAR-8 ovarian
RPMI-8226 leukemia = tested on: RPMI-8226 leukemia
SR leukemia = tested on: SR leukemia
SW-620 colon = tested on: SW-620 colon
BT-549 breast = tested on: BT-549 breast
MDA-MB-435 = tested on: MDA-MB-435

Row | SMILES | TGI (MOLT-4 leukemia) [µM] | TGI (NCI-H226 lung) [µM] | TGI (NCI-H23 lung) [µM] | TGI (NCI-H460 lung) [µM] | TGI (OVCAR-8 ovarian) [µM] | TGI (RPMI-8226 leukemia) [µM] | TGI (SR leukemia) [µM] | TGI (SW-620 colon) [µM] | GI50 (BT-549 breast) [µM] | TGI (BT-549 breast) [µM] | GI50 (MDA-MB-435) [µM] | TGI (MDA-MB-435) [µM] | GI50 (MOLT-4 leukemia) [µM] | GI50 (NCI-H226 lung) [µM] | GI50 (NCI-H23 lung) [µM] | GI50 (NCI-H460 lung) [µM] | GI50 (OVCAR-8 ovarian) [µM] | GI50 (RPMI-8226 leukemia) [µM] | GI50 (SW-620 colon) [µM] | GI50 (SR leukemia) [µM]
1 | NNC(=O)/C(=C/c1cccc([N+](=O)[O-])c1)NC(=O)c1ccccc1 | > 100 | > 100 | > 100 | > 100 | > 100 | > 100 | > 100 | > 100 |  |  |  |  |  |  |  |  |  |  |  | 
2 | NC(N)=NS(=O)(=O)c1ccc(NC(=O)c2cccc3c(Nc4ccc(S(=O)(=O)N=C(N)N)cc4)c4ccc(Cl)cc4nc23)cc1 | > 100 |  | > 100 | > 100 | > 100 | > 100 |  | > 100 |  |  |  |  |  |  |  |  |  |  |  | 
3 | C/C(=N\N(C)C)c1sc(-n2nc(-c3ccccc3)cc2-c2ccccc2)nc1C | > 100 | > 100 | > 100 | > 100 | > 100 |  | > 100 | > 100 |  |  |  |  |  |  |  |  |  |  |  | 
4 | CCCCN(CCCC)C(=O)C(=O)CC(=O)c1ccc(Br)cc1 | > 100 | > 100 | > 100 | > 100 | > 100 | > 100 |  | > 100 |  |  |  |  |  |  |  |  |  |  |  | 
5 | COc1c(OC(C)=O)ccc(/C=C2\N=C(C)OC2=O)c1[N+](=O)[O-] | > 100 |  |  | > 100 | > 100 | > 100 | > 100 | > 100 |  |  |  |  |  |  |  |  |  |  |  | 
6 | O=C1/C(=C\c2ccc(Cl)cc2)CN(C(=S)Nc2ccccc2)C/C1=C\c1ccc(Cl)cc1 | 13.7 | 4.58 | 3.92 | 2.15 | > 47.9 | 0.646 |  | 1.04 | 0.6 | 1.77 | 1.09 | 3.01 | 1.74 | 1.64 | 1.3 | 0.471 | 0.527 | 0.136 | 0.298 | 
7 | CCOC(=O)c1cnc(SCc2ccc(Cl)c(Cl)c2)nc1N1CC1 | 15 | 18.9 | 14.5 | 7.66 | 30.2 | 9.64 |  | 13.8 | 2.88 | 13.6 | 1.97 | 11.4 | 3.27 | 5.01 | 3.62 | 2.88 | 3.6 | 2.54 | 1.74 | 
8 | Cn1nc(-c2ccccc2NC(=O)C(F)(F)F)c(=O)n(C)c1=S | > 100 | > 100 | 80.8 | 64.1 | 67.7 |  | 53.7 | > 100 |  |  |  |  |  |  |  |  |  |  |  | 
9 | Cc1cc(Br)cc(C)c1NC(=O)C(=O)CC(=O)c1sc(-n2nc(-c3ccccc3)cc2-c2ccccc2)nc1C | > 100 | > 100 | > 100 | > 100 | > 100 | > 100 | > 100 | > 100 |  |  |  |  |  |  |  |  |  |  |  | 
10 | O=C1C2=C(c3ccccc31)C(c1cccc(Cl)c1)NC(=S)N2 (configuration not stated) | > 100 | > 100 | > 100 | > 100 | > 100 | > 100 |  | > 100 |  |  |  |  |  |  |  |  |  |  |  | 
11 | COc1ccc(-c2oc3cc(O)c(OC)c(O)c3c(=O)c2OC2OC(CO)C(O)C(O)C2O)cc1 (configuration not stated) | > 100 |  | > 100 | > 100 | > 100 | > 100 |  | > 100 |  |  |  |  |  |  |  |  |  |  |  | 
12 | N#C/C(=C\c1c(-c2ccccc2)[nH]c2ccccc12)C(=O)c1ccc(Cl)cc1 | 8.87 | 47.2 | 38.5 | 11.6 | > 47.9 | 20 |  | > 100 | 5.83 | 79.7 |  |  | 1.01 | 7.5 | 3.71 | 1.02 | 6.16 | 1.32 | 0.554 | 
13 | COC(=O)Nc1nc2ccc(C(=O)c3ccc[nH]3)cc2[nH]1 | > 100 |  | > 100 | > 100 | > 100 | > 100 |  | > 100 |  | > 100 |  | 0.359 |  |  |  |  |  |  |  | 
14 | COC1C=C(Nc2cccc(Cl)c2)C(=O)C1 (configuration not stated) | > 100 | > 100 | > 100 | > 100 | > 100 |  | > 100 | > 100 |  |  |  |  |  |  |  |  |  |  |  | 
15 | C1CCC([PH+](C2CCCCC2)C2CCCCC2[PH+](C2CCCCC2)C2CCCCC2)CC1.[Au].[CH-]1CCCCC1C1CCCC[N-]1 (configuration not stated) | > 100 |  |  |  | > 100 | > 100 | > 100 |  | 0.294 | 1.36 |  |  | 0.366 |  |  |  | 0.278 | 0.132 |  | 0.392
16 | C1=CN2C[n+]3cccc(OCc4ccccc4)c3N=C2C(OCc2ccccc2)=C1 |  | > 100 | 39.9 | > 100 | > 100 | 9.26 |  | > 100 |  | 3.25 |  | 33.2 |  |  |  |  |  |  |  | 
17 | C=C(c1ccccc1N)[C@@]1(O)C[C@H](/C(=C\C)CO)C[C@@H]1NCc1ccccc1 | 39.7 | 33.4 | > 100 | 42.8 | 53.2 | 42.5 |  | 50 |  |  |  |  |  |  |  |  |  |  |  | 
18 | CCOC(=O)C1C=C2O[C@@H]3OC4(CCCCC4)O[C@@H]3C2[C@H]2C(=O)C=CC(=O)[C@@]12C(=O)OC (some centres not stated) | 8.71 | 36.4 | 45.2 | 33.4 | 13.9 | 8.06 | 6.71 | 28.6 |  |  |  |  |  |  |  |  |  |  |  | 
19 | Cc1ccc(-c2c(C#N)c(N)nc(N3CCOCC3)c2C#N)o1 | > 100 | > 100 |  | > 100 | > 100 | > 100 |  | > 100 | 62.9 | > 100 |  |  | 61.9 | 46.8 |  | 43.3 | 72.6 | 49.8 | > 100 | 
20 | CCOC(=O)/N=c1\ss/c(=N\C(=S)N(C)C)n1-c1ccccc1 | > 100 | > 100 | > 100 | > 100 | > 100 | > 100 |  | > 100 |  |  |  |  | > 100 | > 100 |  | 35.2 | > 100 | > 100 | > 100 | 
21 | S=c1[nH]nc(COc2ccc(Cl)cc2)o1 | > 100 | > 100 | > 100 | > 100 | > 100 | > 100 |  | 29.8 |  |  |  |  |  |  |  |  |  |  |  | 
22 | CC(C)=CC(=O)CC(=O)C(=O)Nc1ccc(C)c(C)c1 | > 100 | > 100 | > 100 |  |  | > 100 | > 100 | > 100 |  |  |  |  |  |  |  |  |  |  |  | 
